In series [1] the target is T1, LmrR (Lactococcus cremoris, UniProt A2RI36).
T1 construct: gene llmg_0323; full-length, synthetic codon-optimised gene in pET28b (NcoI/XhoI), C-terminal His6-tag kept, E. coli BL21(DE3), homodimer
Put plainly: SPR (Biacore […], LmrR on NTA chip), kinetic […] Langmuir fit. It counts as binding. Conditions: pH 7.4, 25 C, 150 mM NaCl, 50 uM EDTA, 0.005% P-20; dimeric central pore, 1:1 stoichiometry.

Series [2] deals with T1, LmrR. Put plainly: SPR (Biacore […], LmrR on NTA chip), equilibrium one-site fit. It counts as binding. The note with it: pH 7.4, 25 C, 150 mM NaCl, 50 uM EDTA, 0.005% P-20; dimeric central pore, 1:1 stoichiometry. On the technique in general: Surface plasmon resonance follows binding to a sensor surface in real time, without labels.
For series [3], the target named is T2, LmrR (Lactococcus lactis, UniProt A2RI36 1-116).
T2 sequence: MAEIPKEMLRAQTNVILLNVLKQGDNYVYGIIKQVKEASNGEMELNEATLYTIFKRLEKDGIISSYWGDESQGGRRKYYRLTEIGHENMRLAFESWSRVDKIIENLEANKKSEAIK
Put plainly: NMR; 1H-13C HMQC titration, Ile d1 CSPs; low-field shift of Ile-62 d1 13C; SPR: 10 mM HEPES pH 7.4, 150 mM NaCl, 50 uM EDTA, 0.005% surfactant P-20, 25 C (described for compounds); NMR: 10 mM NaPi pH 6.8, 100 mM NaCl, 298 K.

Series [4] addresses T2, LmrR. Put plainly: SPR; LmrR immobilised on NTA chip; 1:1 Langmuir global fit; text states only 'μM affinity', number in figure; SPR: 10 mM HEPES pH 7.4, 150 mM NaCl, 50 uM EDTA, 0.005% surfactant P-20, 25 C (described for compounds); NMR: 10 mM NaPi pH 6.8, 100 mM NaCl, 298 K.

As for `CCOc1ccc(-c2nc3ccc(-c4nc5ccc(N6CCN(C)CC6)cc5[nH]4)cc3[nH]2)cc1` [Hoechst 33342], the KD entry in series [1] is “SPR analyses indicated that these compounds bind to LmrR with various affinities”.

`CCN=c1cc2oc3cc(NCC)c(C)cc3c(-c3ccccc3C(=O)OCC)c-2cc1C` [rhodamine 6G]: the KD result in series [2] is listed as “SPR analyses indicated that these compounds bind to LmrR with various affinities”. On the same count and under the same terms, with `CC[n+]1c(-c2ccccc2)c2cc(N)ccc2c2ccc(N)cc21` [ethidium] the entry was “SPR analyses indicated that these compounds bind to LmrR with various affinities”; with `COc1cccc2c1C(=O)c1c(O)c3c(c(O)c1C2=O)C[C@@](O)(C(C)=O)C[C@@H]3O[C@H]1C[C@H](N)[C@H](O)[C@H](C)O1` [daunomycin], “The KD values for H33342 and daunomycin were consistent with those previously reported”.

B1: lmrCD oligo (33-bp promoter fragment) (dsDNA)
DNA 1: CAATTTAATGTAAAGTAGTTTACATTATTTAAC
DNA 2: GTTAAATAATGTAAACTACTTTACATTAAATTG
Consider B1, for which the binding result in series [3] and in series [4] was “binds” throughout.

Values taken from paper PMC4235314 (Scientific Reports, 2014).
